Source: US20190062272A1, “SMALL MOLECULES FOR IMMUNOGENIC TREATMENT OF CANCER” (Capten Therapeutics Inc., priority 2017, published 2019)

Columns and labels:
Type in all cases: cell-based
[1] = tested on: CT26 Colon Cancer; assay: Cytotoxicity assay (Cell Titer GLO, 72 hours), CT26; conditions: Mus musculus, CT26 Colon Cancer cells, cell viability by Cell Titer GLO, read-out: GC50 (the source's name)
Description: (§1) Cell lines used: CT26, B16F10 and NIH3T3
(§2) Concentration range of drug to be tested: 50 nM to 50 uM
(§3) Cells were plated in a 96 well plate and when they are about 50% confluent the drug was added in DMSO so that the final concentration of DMSO is 0.1% (v/v) of less and incubated for 72 hours. The cell viability is then determined using Cell Titer GLO.

[2] = tested on: B16F10 Melanoma; assay: Cytotoxicity assay (Cell Titer GLO, 72 hours), B16F10; conditions: Mus musculus, B16-F10, B16F10 Melanoma cells, cell viability by Cell Titer GLO, read-out: GC50 (the source's name)
Description: as §1, §2, §3

[3] = tested on: NIH 3T3 Non-tumor; assay: Cytotoxicity assay (Cell Titer GLO, 72 hours), NIH3T3; conditions: Mus musculus, NIH 3T3 Non-tumor cells, cell viability by Cell Titer GLO, read-out: GC50 (the source's name)
Description: as §1, §2, §3

C=CC(=O)NCCSc1cc(O)ccc1O [Compound 12, N-[2-(2,5-dihydroxyphenyl)sulfanylethyl]propenamide]
IC50 [1]: 14.2 µM | IC50 [2]: > 50 µM | IC50 [3]: 3.3 µM

C=CC(=O)NCCSc1ccc(O)c(O)c1 [Compound 10, N-[2-(3,4-dihydroxyphenyl)sulfanylethyl]propenamide]
IC50 [1]: > 50 µM | IC50 [2]: > 50 µM | IC50 [3]: > 50 µM

C=CC(=O)NCCSc1cccc(O)c1O [Compound 14, N-[2-(2,3-dihydroxyphenyl)sulfanylethyl]propenamide]
IC50 [1]: 9.9 µM | IC50 [2]: 4.7 µM | IC50 [3]: > 50 µM
